Reference: patent publication US11098027B2, “Therapeutic heterocyclic compounds” (Gilead Sciences, Inc., priority 2018, dated 2021)

The compounds below were run against T1, IDO1 (Homo sapiens, UniProt P14902) (assay: Cell-based (HeLa) assay for measurement of IDO1 inhibition (kynurenine levels in supernatant)). Details: H1-HeLa cells, IDO1 induced with IFNγ, 48 hour incubation, kynurenine read by absorbance at 480 nm; geometric mean of a minimum of four determinations.
T1 construct: HeLa cells were treated with a test compound in the presence of IFNγ, which induces IDO1 expression; host or cells: H1-HeLa cells, IDO1 induced with IFNγ
Protocol: Example B-1. Cell-Based (HeLa) Assay for Measurement of IDO1 Inhibition
To measure IDO1 inhibition in tissue culture, HeLa cells were treated with a test compound in the presence of IFNγ, which induces IDO1 expression. Following incubation, cell supernatants were assayed for kynurenine levels, an indicator of IDO1 activity.
The following day, the test compounds were added in DMSO (0.5% final) at various concentrations, and IDO1 was inducibly expressed by the addition of 50 uL/well of 50 ng/mL of INFγ (Peprotech #300-02) in cell plating media. As a positive control, 50 uL of the cell plating media without IFNγ was added to several wells. Following a 48 hour incubation, the plates were spun down at 1,200 RPM for 5 min at 10° C. 65 μL/well of the supernatant was then transferred to new 384-well plates (Thermo #262160) that contained 10 uL/well of 30% TCA (Sigma # TO699), and the plates were sealed and incubated at 60° C. for 30 min. The plates were then centrifuged for 15 min at 2,000 RPM at 10° C. 40 μL/well of the supernatant was transferred to new 384-well plates (Thermo #262160) and was reacted with 40 μL/well of 2% (w/v) p-dimethlyaminobenzaldehyde (Sigma #156417) in glacial acetic acid (Sigma #A6283). The reaction was incubated at room temperature for 10 min and absorbance at 480 nm was read using a PerkinElmer Envision plate reader.
Data in Table 1 were normalized based on positive (−IFNγ) and negative (+IFNγ) controls and EC50 values were calculated from the fit of the dose—response curves to a four-parameter equation. All EC50 values represent geometric mean values of a minimum of four determinations. These assays generally produced results within 2-fold of the reported mean

T1 sequence (P14902 whole entry): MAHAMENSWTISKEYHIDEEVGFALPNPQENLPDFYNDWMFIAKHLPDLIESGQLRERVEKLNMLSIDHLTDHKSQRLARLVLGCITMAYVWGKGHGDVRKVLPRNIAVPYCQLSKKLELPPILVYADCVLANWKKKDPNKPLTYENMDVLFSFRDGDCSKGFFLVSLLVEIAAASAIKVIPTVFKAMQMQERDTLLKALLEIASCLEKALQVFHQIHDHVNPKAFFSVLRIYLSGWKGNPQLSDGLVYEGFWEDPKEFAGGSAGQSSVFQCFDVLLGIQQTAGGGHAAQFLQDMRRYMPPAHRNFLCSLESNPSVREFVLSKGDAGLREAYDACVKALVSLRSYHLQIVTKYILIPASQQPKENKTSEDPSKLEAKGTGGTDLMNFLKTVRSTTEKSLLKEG

Going from CC1(C)C(=O)N(c2ncccn2)c2cccc(-c3ccc(C(F)(F)F)c(C(=O)Nc4ccc(F)c(Br)c4)c3)c21 [Example 31, N-(3-bromo-4-fluorophenyl)-5-(3,3-dimethyl-2-oxo-1-(pyrimidin-2-yl)indolin-4-yl)-2-(trifluoromethyl)benzamide] to CC1(C)C(=O)N(c2ncccn2)c2cccc(-c3ccc(C(F)(F)F)c(C(=O)Nc4ccccc4)c3)c21 [Example 37, 5-(3,3-dimethyl-2-oxo-1-(pyrimidin-2-yl)indolin-4-yl)-N-phenyl-2-(trifluoromethyl)benzamide], the EC50 falls from 57 nM to 28 nM (2-fold). The second is the more potent here.

CC1(C)C(=O)N(c2cccnc2)c2nccc(-c3ccc(C(F)(F)F)c(C(=O)Nc4ccc(F)c(F)c4)c3)c21 [Example 32, N-(3,4-difluorophenyl)-5-(3,3-dimethyl-2-oxo-1-(pyridin-3-yl)-2,3-dihydro-1H-pyrrolo[2,3-b]pyridin-4-yl)-2-(trifluoromethyl)benzamide] and CC1(C)C(=O)N(c2ncccn2)c2nccc(-c3ccc(C(F)(F)F)c(C(=O)Nc4ccc(F)c(F)c4)c3)c21 [Example 50, N-(3,4-difluorophenyl)-5-(3,3-dimethyl-2-oxo-1-(pyrimidin-2-yl)-2,3-dihydro-1H-pyrrolo[2,3-b]pyridin-4-yl)-2-(trifluoromethyl)benzamide] are within 1.5-fold of each other in EC50: 57 nM for the first, 50 nM for the second.

First: O=C(Nc1ccc(F)cc1)c1cc(-c2cccc3c2C2(CCC2)C(=O)N3c2ncccn2)ccc1C(F)(F)F [Example 33, N-(4-fluorophenyl)-5-(2′-oxo-1′-(pyrimidin-2-yl)spiro[cyclobutane-1,3′-indolin]-4′-yl)-2-(trifluoromethyl)benzamide]
Second: CC1(C)Oc2c(-c3ccc(C(F)(F)F)c(C(=O)Nc4ccc(F)cc4)c3)cccc2N(c2ncccn2)C1=O [Example 54, 5-(2,2-dimethyl-3-oxo-4-(pyrimidin-2-yl)-3,4-dihydro-2H-benzo[b][1,4]oxazin-8-yl)-N-(4-fluorophenyl)-2-(trifluoromethyl)benzamide]
The EC50 of the first is 15-fold lower: 92 nM for the first, 1340 nM for the second. The first is the more potent here.

Going from Cc1ccc(-c2cccc3c2oc(=O)n3-c2cccnc2)cc1C(=O)Nc1ccc(F)cc1 [Example 34, N-(4-fluorophenyl)-2-methyl-5-(2-oxo-3-(pyridin-3-yl)-2,3-dihydrobenzo[d]oxazol-7-yl)benzamide] to Cc1ccc(-c2cccc3c2oc(=O)n3-c2cccc(F)c2F)cc1C(=O)Nc1ccc(F)cc1 [Example 39, 5-(3-(2,3-difluorophenyl)-2-oxo-2,3-dihydrobenzo[d]oxazol-7-yl)-N-(4-fluorophenyl)-2-methylbenzamide], the EC50 rises from 19 nM to 47 nM (2.5-fold).

Going from CC1(C)C(=O)N(c2ncccn2)c2cccc(-c3cnc(C(F)(F)F)c(C(=O)Nc4ccc(F)cc4)c3)c21 [Example 35, 5-(3,3-dimethyl-2-oxo-1-(pyrimidin-2-yl)indolin-4-yl)-N-(4-fluorophenyl)-2-(trifluoromethyl)nicotinamide] to CC1(C)C(=O)N(c2ccncn2)c2cccc(-c3cnc(C(F)(F)F)c(C(=O)Nc4ccc(F)cc4)c3)c21 [Example 49, 5-(3,3-dimethyl-2-oxo-1-(pyrimidin-4-yl)indolin-4-yl)-N-(4-fluorophenyl)-2-(trifluoromethyl)nicotinamide], the EC50 rises from 17 nM to 33 nM (1.9-fold).

CC1(C)C(=O)N(c2cccnc2)c2cccc(-c3cnc(C(F)(F)F)c(C(=O)Nc4ccc(F)cc4)c3)c21 [Example 36, 5-(3,3-dimethyl-2-oxo-1-(pyridin-3-yl)indolin-4-yl)-N-(4-fluorophenyl)-2-(trifluoromethyl)nicotinamide] and CC1(C)C(=O)N(c2ncc[nH]2)c2cccc(-c3ccc(C(F)(F)F)c(C(=O)Nc4ccc(F)cc4)c3)c21 [Example 40, 5-(1-(1H-imidazol-2-yl)-3,3-dimethyl-2-oxoindolin-4-yl)-N-(4-fluorophenyl)-2-(trifluoromethyl)benzamide] are within 1.5-fold of each other in EC50: 26 nM for the first, 31 nM for the second.

Going from CC1(C)C(=O)N(c2cccc(F)c2F)c2cccc(-c3ccc(C(F)(F)F)c(C(=O)Nc4ccc(F)cc4)c3)c21 [Example 38, 5-(1-(2,3-difluorophenyl)-3,3-dimethyl-2-oxoindolin-4-yl)-N-(4-fluorophenyl)-2-(trifluoromethyl)benzamide] to CC1(C)Oc2c(-c3ccc(C(F)(F)F)c(C(=O)Nc4ccc(F)cc4)c3)cccc2N(c2ccccn2)C1=O [Example 52, 5-(2,2-dimethyl-3-oxo-4-(pyridin-2-yl)-3,4-dihydro-2H-benzo[b][1,4]oxazin-8-yl)-N-(4-fluorophenyl)-2-(trifluoromethyl)benzamide], the EC50 rises from 55 nM to 491 nM (8.9-fold). The first is the more potent here.

Compared with Cc1ccc(-c2cccc3c2C(C)(C)C(=O)N3c2ncccn2)nc1C(=O)Nc1ccc(F)cc1 [Example 41, 6-(3,3-dimethyl-2-oxo-1-(pyrimidin-2-yl)indolin-4-yl)-N-(4-fluorophenyl)-3-methylpicolinamide], CC1(C)C(=O)N(c2ncccn2)c2cccc(-c3ccc(C(F)(F)F)c(C(=O)Nc4ccc(F)cc4)n3)c21 [Example 44] is 3.8-fold lower in EC50: 424 nM for the first, 113 nM for the second.

Going from CC1(C)C(=O)N(c2cccnc2)c2nccc(-c3ccc(C(F)(F)F)c(C(=O)Nc4ccccc4)c3)c21 [Example 42, 5-(3,3-dimethyl-2-oxo-1-(pyridin-3-yl)-2,3-dihydro-1H-pyrrolo[2,3-b]pyridin-4-yl)-N-phenyl-2-(trifluoromethyl)benzamide] to CC1(C)C(=O)N(c2ncccn2)c2cccc(-c3ccc(C(F)(F)F)c(C(=O)Nc4ccnnc4)c3)c21 [Example 46, 5-(3,3-dimethyl-2-oxo-1-(pyrimidin-2-yl)indolin-4-yl)-N-(pyridazin-4-yl)-2-(trifluoromethyl)benzamide], the EC50 rises from 37 nM to 283 nM (7.6-fold).

First: CC1(C)C(=O)N(c2ccccn2)c2nccc(-c3cnc(C(F)(F)F)c(C(=O)Nc4ccc(F)c(F)c4)c3)c21 [Example 43, N-(3,4-difluorophenyl)-5-(3,3-dimethyl-2-oxo-1-(pyridin-2-yl)-2,3-dihydro-1H-pyrrolo[2,3-b]pyridin-4-yl)-2-(trifluoromethyl)nicotinamide]
Second: CC1(C)C(=O)N(c2ccncn2)c2cccc(-c3cnc(C(F)(F)F)c(C(=O)Nc4ccc(F)c(F)c4)c3)c21 [Example 51, N-(3,4-difluorophenyl)-5-(3,3-dimethyl-2-oxo-1-(pyrimidin-4-yl)indolin-4-yl)-2-(trifluoromethyl)nicotinamide]
The EC50 of the first is 2.5-fold higher: 103 nM for the first, 41 nM for the second.

Compared with Cc1ccc(-c2cccc3c2C(C)(C)C(=O)N3c2ncccn2)c(F)c1C(=O)Nc1ccc(F)cc1 [Example 45, 3-(3,3-dimethyl-2-oxo-1-(pyrimidin-2-yl)indolin-4-yl)-2-fluoro-N-(4-fluorophenyl)-6-methylbenzamide], Cc1ccc(-c2cccc3c2C(C)(C)C(=O)N3Cc2ncccn2)cc1C(=O)Nc1ccc(F)cc1 [Example 53, 5-(3,3-dimethyl-2-oxo-1-(pyrimidin-2-ylmethyl)indolin-4-yl)-N-(4-fluorophenyl)-2-methylbenzamide] is 32-fold higher in EC50: 32 nM for the first, 1020 nM for the second.

Going from CC1(C)C(=O)N(c2ncccn2)c2cccc(-c3ccc(C(F)(F)F)c(C(=O)Nc4cncnc4)c3)c21 [Example 47, 5-(3,3-dimethyl-2-oxo-1-(pyrimidin-2-yl)indolin-4-yl)-N-(pyrimidin-5-yl)-2-(trifluoromethyl)benzamide] to CC1(C)C(=O)N(c2ncccn2)c2cccc(-c3ccc(C(F)(F)F)c(C(=O)Nc4ccncn4)c3)c21 [Example 48, 5-(3,3-dimethyl-2-oxo-1-(pyrimidin-2-yl)indolin-4-yl)-N-(pyrimidin-4-yl)-2-(trifluoromethyl)benzamide], the EC50 falls from 810 nM to 73 nM (11-fold).
